# Assay results: patent US6942979B1, “Method for screening substances capable of modulating the activity of a TRAAK potassium channel” (Centre National de la Recherche Scientifique-CNRS, priority 1998, dated 2005)
# How the values were obtained:
# Assay type in all cases: cell-based
# TRAAK channel [1] = molecular target: T1, TRAAK channel (Mus musculus, UniProt O88454); test: TRAAK currents in transfected COS cells, imposed voltage technique; conditions: concentration of 10 μM
# T1 construct: an open reading phase of 1197 nucleotides coding for a polypeptide of 398 residues; expressed in transfected cells; host or cells: COS cells (transient)
# T1 sequence (O88454 1-398): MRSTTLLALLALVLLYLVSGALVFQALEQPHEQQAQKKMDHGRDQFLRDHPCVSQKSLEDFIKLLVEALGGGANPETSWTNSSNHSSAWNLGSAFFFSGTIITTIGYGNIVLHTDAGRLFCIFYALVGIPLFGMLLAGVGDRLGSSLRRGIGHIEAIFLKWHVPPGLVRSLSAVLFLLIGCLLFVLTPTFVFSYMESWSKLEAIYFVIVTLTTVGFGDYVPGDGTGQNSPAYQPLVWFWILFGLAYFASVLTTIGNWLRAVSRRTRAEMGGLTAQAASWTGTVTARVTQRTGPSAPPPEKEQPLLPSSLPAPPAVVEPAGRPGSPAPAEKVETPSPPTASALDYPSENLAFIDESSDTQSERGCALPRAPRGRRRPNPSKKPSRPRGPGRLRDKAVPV
# TRAAK channel [2] = molecular target: T1, TRAAK channel; test: TRAAK currents in Xenopus oocytes injected with TRAAK cRNA, imposed voltage technique
# Method: In (a): the oocytes were maintained at a potential of −80 mV then the currents were recorded following potential jumps from −150 to +50 mV by increments of 20 mV. The recordings were performed in an external medium containing a K^+ concentration of 2 mM or 74 mM. In (b): current-potential relation was according to the same experimental set-up as in (a). In (c): potential reversal (Erev) of the TRAAK currents were a function of the external K^+ concentration. In (d): currents recorded on COS cells transfected by TRAAK according to the same protocol as in (a). In (e): current-potential relation was according to the same experimental set-up as in (d).
# (§1) For the functional study, the coding sequence of TRAAK was inserted in the vector pEXO and a complementary RNA (cRNA) was synthesized from this construction and injected in Xenopus oocytes. For expression in the COS cells, the TRAAK sequence was subcloned in an expression vector under the control of a eukaryote promoter and transfected into the cells. An absent non-inactivating current from the oocytes and the control cells was measured by the imposed voltage technique as represented in FIG. 4. The activation was instantaneous and could not be resolved because it was masked by the capacitive discharge of the current recorded at the beginning of the potential jump. The current-potential relation rectified in the outgoing direction when the external K^+ concentration was equal to 2 mM. Incoming currents were observed when the external K^+ concentration was increased. At all concentrations, the current-potential curves followed the Goldman-Hodgkin-Katz relation. […] The TRAAK channel is selective for potassium. Reversal of the current potential follows the equilibrium potential of K^+ and changing the concentration of K^+ by 10 leads to a change in the potential inversion value conforming to the value predicted by Nernst's equation (48.7±0.7 mV times 10, n=4).
# TREK-1 channel [3] = molecular target: T2, TREK-1 channel (Mus musculus, UniProt P97438, R381M/T78A); test: TREK-1 currents in transfected COS cells, patch recording
# T2 construct: expressed in transfected cells; host or cells: COS cells
# T2 sequence (P97438 with tags, fused parts or gaps isoform P97438-2 T63A/R366M): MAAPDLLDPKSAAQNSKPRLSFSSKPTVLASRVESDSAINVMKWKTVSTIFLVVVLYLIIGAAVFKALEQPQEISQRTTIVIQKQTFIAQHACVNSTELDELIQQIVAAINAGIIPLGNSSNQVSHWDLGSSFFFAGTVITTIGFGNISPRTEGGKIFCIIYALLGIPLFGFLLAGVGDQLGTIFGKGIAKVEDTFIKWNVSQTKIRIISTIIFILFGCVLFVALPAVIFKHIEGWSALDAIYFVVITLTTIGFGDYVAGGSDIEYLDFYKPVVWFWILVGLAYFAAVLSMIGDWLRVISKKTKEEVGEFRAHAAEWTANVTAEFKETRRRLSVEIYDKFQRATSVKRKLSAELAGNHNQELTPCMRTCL
# Method: (§2) In FIG. 8a: the activity of TREK-1 was recorded in the attached cell configuration. The patch was stimulated by a potential ramp lasting 800 msec every 5 seconds. The currents were measured at 80 mV. The applications of arachidonic acid (AA, 10 μM) are indicated by the horizontal bars. During the experiment, the patch was stimulated by tensions of 50 mmHg (indicated by the arrows). At 9 minutes, the patch was excised in the inside-out configuration. In FIG. 8b: current-potential relations corresponding to the experiment illustrated in FIG. 8a is shown. In FIG. 8c: activity of TREK-1 in the attached cell configuration with 10 μM AA in the pipette can be seen. The potential ramp lasted 800 msec and the currents were measured at 80 mV. In FIG. 8d: single-channel current-potential relations at the moment at which the pipette was placed on the membrane or after 20 minutes and 1 minute after the patch was excised in the inside-out configuration. […] The current was measured at 80 mV. In FIG. 8f: AA had no effect on the TREK-1 current measured in the intact cell when it was in the pipette. The current was measured 30 minutes after the patch was broken (control tracing) by a potential ramp of 800 msec. The current was then measured after an application of AA of 1 minute in the external medium (AA tracing).
# (§3) FIGS. 10a and b are graphs showing the effect of riluzole on the TREK-1 and TRAAK […] currents. The current-potential relations were obtained as in FIG. 9a above and after application ofriluzole (100 μM) on the transfected COS cells.
# TRAAK channel [4] = molecular target: T1, TRAAK channel; test: TRAAK currents in transfected COS cells, imposed voltage technique; parameters: increase in the current induced by AA: dose or concentration left out as unconfirmed
# Method: as §1, with “The maintenance potential was -80 mV. In FIG. 9b: dose-effect relation ofthe activation” for “For the functional study, the coding sequence”, “by AA is shown. In FIG. 9c: current-potential relations obtained as in FIG. 9a” for “was inserted”, “outside-out configuration are shown. […] In FIG. 9d: a histogram represents the coefficient of augmentation of the currents obtained after application of various fatty acids (10 μM). […] The coefficient of augmentation is indicated in each case. […] The current-potential relations were obtained as in FIG. 9a above” for “vector pEXO”, “after application ofriluzole (100 μM) on the transfected COS cells. […]” for “a complementary RNA (cRNA) was synthesized from this construction and injected in Xenopus oocytes.”
# TREK-1 channel [5] = molecular target: T3, TREK-1 channel (Mus musculus, UniProt P97438); test: TREK-1 currents in transfected COS cells, patch recording; conditions: AA 10 μM applied in the external medium, transfected COS cells
# T3 construct: expressed in transfected cells; host or cells: COS cells
# T3 sequence (P97438 with tags, fused parts or gaps isoform P97438-2 T63A/R366M): T2 sequence (P97438 with tags, fused parts or gaps isoform P97438-2 T63A/R366M)
# Method: as §2, §3
# TASK channel = molecular target: T4, TASK channel (Homo sapiens, UniProt O14649); test: TASK currents in transfected COS cells before and after AA; conditions: intact cell configuration
# T4 construct: expressed in transfected cells; host or cells: COS cells (transient)
# T4 sequence (O14649 whole entry): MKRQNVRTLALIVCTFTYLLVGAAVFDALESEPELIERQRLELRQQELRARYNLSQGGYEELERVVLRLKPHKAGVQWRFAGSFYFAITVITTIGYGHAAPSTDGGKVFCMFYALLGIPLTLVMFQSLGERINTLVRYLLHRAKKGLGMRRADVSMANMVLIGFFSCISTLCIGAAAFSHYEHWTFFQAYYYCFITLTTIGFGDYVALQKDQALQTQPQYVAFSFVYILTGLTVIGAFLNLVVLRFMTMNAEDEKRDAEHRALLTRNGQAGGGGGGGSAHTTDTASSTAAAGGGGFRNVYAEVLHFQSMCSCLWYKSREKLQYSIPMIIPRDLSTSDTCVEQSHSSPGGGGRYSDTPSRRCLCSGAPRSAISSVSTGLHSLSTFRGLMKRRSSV
# control cells (CD8) = test: Application of AA on control cells (CD8)
# TWIK-1 channel = molecular target: T5, TWIK-1 channel (Homo sapiens, UniProt O00180); test: TWIK-1 currents in transfected COS cells before and after AA; conditions: intact cell configuration
# T5 construct: expressed in transfected cells; host or cells: COS cells (transient)
# T5 sequence (O00180 1-336): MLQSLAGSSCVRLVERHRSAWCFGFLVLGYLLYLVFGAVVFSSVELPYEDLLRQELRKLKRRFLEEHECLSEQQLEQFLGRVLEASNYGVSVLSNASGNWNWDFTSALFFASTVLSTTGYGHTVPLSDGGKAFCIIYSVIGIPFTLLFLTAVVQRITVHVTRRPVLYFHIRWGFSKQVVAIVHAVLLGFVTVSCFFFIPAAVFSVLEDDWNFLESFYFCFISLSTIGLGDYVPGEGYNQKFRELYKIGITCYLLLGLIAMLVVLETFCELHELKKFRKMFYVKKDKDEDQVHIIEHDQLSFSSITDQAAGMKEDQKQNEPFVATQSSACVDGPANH
# [6] = riluzole 100 μM, transfected COS cells
smiles,measurement,setting,value
"CC/C=C\C/C=C\C/C=C\C/C=C\C/C=C\C/C=C\CCC(=O)O [docosohexaenoic, docosohexaenoic acid]",activation of the TRAAK channel by fatty acids and derivatives,TRAAK channel [1],activation
CCCCC/C=C\C/C=C\C/C=C\C/C=C\CCCC(=O)OC [AA-ME],activation of the TRAAK channel by fatty acids and derivatives,TRAAK channel [1],inactive
"CCCCCCCCCCCCCCCC(=O)O [palmitic, palmitic acid]",activation of the TRAAK channel by fatty acids and derivatives,TRAAK channel [1],no effect
Nc1ccncc1 [4-aminopyridine],sensitivity of TRAAK to potassium channel blocking agents,TRAAK channel [2]; 1 mM,insensitive
"Nc1nc2ccc(OC(F)(F)F)cc2s1 [Riluzole, riluzole]",effect of riluzole on the TREK-1 channel,TREK-1 channel [3]; [6],opener
same,effect of riluzole on the TRAAK channel,TRAAK channel [4]; [6],opener
C=C[C@H]1C[N@@]2CC[C@H]1C[C@H]2[C@H](O)c1ccnc2ccc(OC)cc12 [quinine],sensitivity of TRAAK to potassium channel blocking agents,TRAAK channel [2]; 100 mM,insensitive
CC[N+](CC)(CC)CC [tetraethylammonium],sensitivity of TRAAK to potassium channel blocking agents,TRAAK channel [2]; 1 mM,insensitive
"CCCCCCCCCCCCCCCCCC(=O)O [stearic, stearic acid]",activation of the TRAAK channel by fatty acids and derivatives,TRAAK channel [1],no effect
CCCCC/C=C\C/C=C\C/C=C\C/C=C\CCCCO [AA-OH],activation of the TRAAK channel by fatty acids and derivatives,TRAAK channel [1],inactive
"CCCCC/C=C\C/C=C\CCCCCCCC(=O)O [linoleic, linoleic acid]",activation of the TRAAK channel by fatty acids and derivatives,TRAAK channel [1],activation
"CCCCCCCCCCCCCCCCCCCC(=O)O [arachidic, arachidic acid]",activation of the TRAAK channel by fatty acids and derivatives,TRAAK channel [1],no effect
"CCCCCCCC/C=C\CCCCCCCC(=O)O [oleic, oleic acid]",activation of the TRAAK channel by fatty acids and derivatives,TRAAK channel [1],activation
CCC=CCC=CCC=CCC=CCC=CCC=CCCC(=O)OC [DOHA-ME],activation of the TRAAK channel by fatty acids and derivatives,TRAAK channel [1],inactive
"CCCCC/C=C\C/C=C\C/C=C\C/C=C\CCCC(=O)O [AA, arachidonic acid]",activation of TREK-1 by AA,TREK-1 channel [5],activated
same,activation of TREK-1 by internal AA,"TREK-1 channel [3]; AA in the pipette, intact cell, dialyzed up to 30 minutes",did not activate
same,effect of activation by AA on TASK,TASK channel,No effects of the same type
same,effect of AA on control cells,control cells (CD8),no effect
same,activation of the TRAAK channel by AA,"TRAAK channel [4]; AA 10 μM (FIG. 9a), transfected COS cells, reversible, concentration dependent",activated
same,increase in the current induced by AA,"TRAAK channel [4]; AA perfusion with mixture of inhibitors of AA metabolism, at +50 mV, n=3",6.6±0.5 times
same,effect of activation by AA on TWIK-1,TWIK-1 channel,No effects of the same type
